Data taken from ChEMBL document CHEMBL5665443, “Enzyme Inhibitor Single Concentration assay results for EUbOPEN Chemogenomics Library” (2024).

Legend:
Conditions in all cases: Hit No
[1] = target: G/T mismatch-specific thymine DNA glycosylase (Homo sapiens) (UniProt Q13569);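 note: human TDG cleavage of quenched duplex DNA oligonucleotides coupled to APE1, strand release read as fluorescence at 594 nm, inhibition of TDG activity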
Description: Inhibition of TDG by quantifying inhibition of TDG-mediated cleavage and dissociation of quenched duplex DNA oligonucleotides, measured as fluorescence at 594 nm. To generate a functional strand incision and increase turn-over this assay is coupled to APE1.

[2] = target: T1, Adenine DNA glycosylase (Homo sapiens) (UniProt Q9UIF7);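 note: human MUTYH activity read as 594 nm fluorescence from cleavage and release of a quenched DNA duplex, coupled with APE1 for strand incision, lower signal meaning inhibition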
T1 sequence (whole entry): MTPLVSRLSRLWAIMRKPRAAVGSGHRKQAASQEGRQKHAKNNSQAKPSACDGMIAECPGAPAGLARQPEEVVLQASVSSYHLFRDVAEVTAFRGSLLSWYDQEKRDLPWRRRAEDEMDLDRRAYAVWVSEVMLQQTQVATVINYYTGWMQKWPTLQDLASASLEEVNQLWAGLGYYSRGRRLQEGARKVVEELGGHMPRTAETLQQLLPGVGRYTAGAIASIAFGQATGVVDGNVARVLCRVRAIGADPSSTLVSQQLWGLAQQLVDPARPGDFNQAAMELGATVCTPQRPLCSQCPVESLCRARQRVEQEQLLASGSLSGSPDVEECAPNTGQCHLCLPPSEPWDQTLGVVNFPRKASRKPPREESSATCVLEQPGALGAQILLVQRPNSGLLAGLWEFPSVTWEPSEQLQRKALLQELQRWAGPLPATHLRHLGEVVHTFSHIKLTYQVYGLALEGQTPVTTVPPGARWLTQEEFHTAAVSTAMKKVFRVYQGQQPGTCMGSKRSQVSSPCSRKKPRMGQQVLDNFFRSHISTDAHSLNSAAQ
Description: Inhibition of MUTYH by quantifying inhibition of MUTYH-mediated cleavage and dissociation of quenched duplex DNA oligonucleotides, measured as fluorescence at 594 nm. To generate a functional strand incision and increase turn-over this assay is coupled to APE1.

[3] = target: T2, Endonuclease 8-like 2 (Homo sapiens) (UniProt Q969S2);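 note: fluorescence at 594 nm reports NEIL2 cutting and release of a quenched double-stranded DNA oligo substrate, reduced signal read as inhibition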
T2 sequence (whole entry): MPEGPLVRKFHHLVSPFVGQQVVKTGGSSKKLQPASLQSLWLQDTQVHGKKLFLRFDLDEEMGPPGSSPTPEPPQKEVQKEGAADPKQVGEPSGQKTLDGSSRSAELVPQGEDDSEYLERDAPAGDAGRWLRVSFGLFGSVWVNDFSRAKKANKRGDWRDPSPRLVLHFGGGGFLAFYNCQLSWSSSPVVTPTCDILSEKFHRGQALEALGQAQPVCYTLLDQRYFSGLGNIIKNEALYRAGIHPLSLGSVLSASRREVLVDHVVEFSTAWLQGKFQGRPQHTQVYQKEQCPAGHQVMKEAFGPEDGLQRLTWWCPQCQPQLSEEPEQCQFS
Description: Inhibition of NEIL2 by quantifying inhibition of NEIL2-mediated cleavage and dissociation of quenched duplex DNA oligonucleotides, measured as fluorescence at 594 nm.

[4] = target: Methyl-CpG-binding domain protein 4 (Homo sapiens) (UniProt O95243);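 note: MBD4 activity read as fluorescence at 594 nm from cleavage and release of a quenched duplex DNA oligonucleotide, with APE1 coupled to incise the strand and raise turnover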
Description: Inhibition of MBD4 by quantifying inhibition of MBD4-mediated cleavage and dissociation of quenched duplex DNA oligonucleotides, measured as fluorescence at 594 nm. To generate a functional strand incision and increase turn-over this assay is coupled to APE1.

[5] = target: T3, Single-strand selective monofunctional uracil DNA glycosylase (Homo sapiens) (UniProt Q53HV7);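 note: enzymatic SMUG1 assay coupled with APE1, reading fluorescence at 594 nm released when a quenched double-stranded DNA oligonucleotide substrate is cleaved and separated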
T3 sequence (whole entry): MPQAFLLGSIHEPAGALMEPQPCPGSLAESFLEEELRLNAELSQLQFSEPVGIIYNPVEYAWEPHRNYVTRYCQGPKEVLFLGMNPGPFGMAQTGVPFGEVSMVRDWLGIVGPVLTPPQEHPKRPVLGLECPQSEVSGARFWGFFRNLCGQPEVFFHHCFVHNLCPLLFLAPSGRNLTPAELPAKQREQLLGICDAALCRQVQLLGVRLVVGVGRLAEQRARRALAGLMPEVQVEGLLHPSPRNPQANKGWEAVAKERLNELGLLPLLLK
Description: Inhibition of SMUG1 by quantifying inhibition of SMUG1-mediated cleavage and dissociation of quenched duplex DNA oligonucleotides, measured as fluorescence at 594 nm. To generate a functional strand incision and increase turn-over this assay is coupled to APE1.

[6] = target: N-glycosylase/DNA lyase (Homo sapiens) (UniProt O15527);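 note: OGG1 cleavage of a quenched duplex DNA oligonucleotide, coupled to APE1 for strand incision, read as fluorescence at 594 nm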
Description: Inhibition of OGG1 by quantifying inhibition of OGG1-mediated cleavage and dissociation of quenched duplex DNA oligonucleotides, measured as fluorescence at 594 nm. To generate a functional strand incision and increase turn-over this assay is coupled to APE1.

[7] = target: Endonuclease 8-like 1 (Homo sapiens) (UniProt Q96FI4);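 note: fluorescence at 594 nm from quenched duplex DNA oligonucleotides released by NEIL1 cleavage and strand separation, reported as reduction of this enzyme activity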
Description: Inhibition of NEIL1 by quantifying inhibition of NEIL1-mediated cleavage and dissociation of quenched duplex DNA oligonucleotides, measured as fluorescence at 594 nm.

[8] = target: Uracil-DNA glycosylase (Homo sapiens) (UniProt P13051);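 note: UNG excision on a quenched double-stranded DNA oligo probe, with APE1 added for strand incision and turnover, read as fluorescence at 594 nm as strands separate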
Description: Inhibition of UNG by quantifying inhibition of UNG-mediated cleavage and dissociation of quenched duplex DNA oligonucleotides, measured as fluorescence at 594 nm. To generate a functional strand incision and increase turn-over this assay is coupled to APE1.

[9] = Compound Concentration 10.0 uM, tested as the 2H-labelled form

G/T mismatch-specific thymine DNA glycosylase (Homo sapiens), sequence (Q13569 whole entry): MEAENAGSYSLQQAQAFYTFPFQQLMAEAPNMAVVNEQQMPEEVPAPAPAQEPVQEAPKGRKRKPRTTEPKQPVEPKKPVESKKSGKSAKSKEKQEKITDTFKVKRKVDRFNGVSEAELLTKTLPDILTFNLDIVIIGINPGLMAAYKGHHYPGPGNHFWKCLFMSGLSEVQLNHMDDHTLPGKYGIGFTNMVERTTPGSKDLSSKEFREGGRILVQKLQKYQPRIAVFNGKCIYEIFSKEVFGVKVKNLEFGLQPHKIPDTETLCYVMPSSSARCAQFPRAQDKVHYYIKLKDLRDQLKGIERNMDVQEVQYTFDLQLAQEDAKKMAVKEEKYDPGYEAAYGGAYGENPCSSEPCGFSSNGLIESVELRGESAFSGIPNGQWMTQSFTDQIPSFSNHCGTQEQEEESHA
Endonuclease 8-like 1 (Homo sapiens), sequence (Q96FI4 whole entry): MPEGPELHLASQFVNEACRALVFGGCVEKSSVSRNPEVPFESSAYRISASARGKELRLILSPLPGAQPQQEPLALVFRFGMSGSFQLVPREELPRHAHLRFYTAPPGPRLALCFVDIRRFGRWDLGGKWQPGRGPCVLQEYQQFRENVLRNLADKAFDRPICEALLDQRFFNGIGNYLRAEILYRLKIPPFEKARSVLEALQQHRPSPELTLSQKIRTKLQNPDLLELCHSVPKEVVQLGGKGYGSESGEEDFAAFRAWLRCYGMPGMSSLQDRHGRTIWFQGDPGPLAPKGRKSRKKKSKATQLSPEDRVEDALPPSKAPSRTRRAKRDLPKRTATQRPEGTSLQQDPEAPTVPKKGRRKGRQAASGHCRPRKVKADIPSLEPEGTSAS
N-glycosylase/DNA lyase (Homo sapiens), sequence (O15527 whole entry): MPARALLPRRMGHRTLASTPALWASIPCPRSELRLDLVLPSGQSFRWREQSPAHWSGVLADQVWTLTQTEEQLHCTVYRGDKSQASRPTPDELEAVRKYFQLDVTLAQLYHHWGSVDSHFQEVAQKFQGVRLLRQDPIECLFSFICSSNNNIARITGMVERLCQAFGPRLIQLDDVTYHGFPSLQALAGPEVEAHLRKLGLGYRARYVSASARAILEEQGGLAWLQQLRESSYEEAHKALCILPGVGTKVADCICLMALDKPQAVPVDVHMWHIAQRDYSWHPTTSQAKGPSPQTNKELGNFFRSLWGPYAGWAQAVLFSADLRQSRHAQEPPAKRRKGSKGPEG
Methyl-CpG-binding domain protein 4 (Homo sapiens), sequence (O95243 whole entry, the tested form may be a part): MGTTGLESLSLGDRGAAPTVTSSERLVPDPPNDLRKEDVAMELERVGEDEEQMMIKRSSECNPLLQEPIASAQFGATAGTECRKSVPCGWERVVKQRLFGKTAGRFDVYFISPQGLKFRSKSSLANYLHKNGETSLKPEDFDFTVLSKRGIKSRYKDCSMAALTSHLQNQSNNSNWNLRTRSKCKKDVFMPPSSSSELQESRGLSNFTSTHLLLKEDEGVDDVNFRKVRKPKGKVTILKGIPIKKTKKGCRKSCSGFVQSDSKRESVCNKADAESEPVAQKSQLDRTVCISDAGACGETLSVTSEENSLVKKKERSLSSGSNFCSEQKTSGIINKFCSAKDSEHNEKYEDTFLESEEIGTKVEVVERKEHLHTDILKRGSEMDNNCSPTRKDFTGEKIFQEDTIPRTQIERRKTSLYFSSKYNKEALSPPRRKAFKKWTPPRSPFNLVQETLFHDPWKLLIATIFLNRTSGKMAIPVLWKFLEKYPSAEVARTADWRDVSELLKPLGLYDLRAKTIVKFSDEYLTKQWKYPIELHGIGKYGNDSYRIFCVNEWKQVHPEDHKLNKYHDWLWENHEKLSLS
Uracil-DNA glycosylase (Homo sapiens), sequence (P13051 whole entry): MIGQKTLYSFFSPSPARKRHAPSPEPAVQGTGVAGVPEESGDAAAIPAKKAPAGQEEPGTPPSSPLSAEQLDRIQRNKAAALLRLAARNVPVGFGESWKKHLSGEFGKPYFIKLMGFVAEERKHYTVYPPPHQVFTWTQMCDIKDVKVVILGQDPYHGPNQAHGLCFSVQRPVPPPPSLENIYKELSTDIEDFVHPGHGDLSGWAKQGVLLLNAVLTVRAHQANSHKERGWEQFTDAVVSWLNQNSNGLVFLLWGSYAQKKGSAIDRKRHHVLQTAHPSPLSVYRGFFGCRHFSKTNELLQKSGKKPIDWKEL

CCCn1c(=O)c2[nH]c(-c3cnn(Cc4cccc(C(F)(F)F)c4)c3)nc2n(CC)c1=O
inhibition ([1]; Compound Concentration 10.0 uM): -4.73%
inhibition ([2]; Compound Concentration 10.0 uM): -1.26%
inhibition ([3]; Compound Concentration 10.0 uM): -0.234%
inhibition ([4]; Compound Concentration 10.0 uM): -7.87%
inhibition ([5]; Compound Concentration 10.0 uM): 4.62%
inhibition ([6]; Compound Concentration 10.0 uM): -1.7%
inhibition ([7]; Compound Concentration 10.0 uM): -6.43%

C(#Cc1cccc(CN2CCOCC2)c1)CCN1CCCCC1
inhibition ([1]; Compound Concentration 10.0 uM): -1.72%
inhibition ([2]; Compound Concentration 10.0 uM): -3.69%
inhibition ([3]; Compound Concentration 10.0 uM): -2.73%
inhibition ([4]; Compound Concentration 10.0 uM): 0.0339%
inhibition ([5]; Compound Concentration 10.0 uM): -7.54%
inhibition ([6]; Compound Concentration 10.0 uM): -4.46%
inhibition ([7]; Compound Concentration 10.0 uM): 11.2%

Cc1cnc(-c2cc(Cl)ccc2F)cc1-n1c(=O)n(CC(N)=O)c2ccccc21
inhibition ([1]; Compound Concentration 10.0 uM): 23.2%
inhibition ([2]; Compound Concentration 10.0 uM): -6.05%
inhibition ([4]; Compound Concentration 10.0 uM): 36.9%
inhibition ([5]; Compound Concentration 10.0 uM): 7.03%
inhibition ([6]; Compound Concentration 10.0 uM): -7.14%
inhibition ([7]; Compound Concentration 10.0 uM): -5.78%
inhibition ([8]; Compound Concentration 10.0 uM): 1.32%

COc1cc2c(CCNC(C)=O)c[nH]c2cc1Cl
inhibition ([1]; Compound Concentration 10.0 uM): 4.32%
inhibition ([2]; Compound Concentration 10.0 uM): -5.23%
inhibition ([3]; Compound Concentration 10.0 uM): 0.0156%
inhibition ([4]; Compound Concentration 10.0 uM): 5.14%
inhibition ([5]; Compound Concentration 10.0 uM): 0.936%
inhibition ([6]; Compound Concentration 10.0 uM): -6.18%
inhibition ([7]; Compound Concentration 10.0 uM): -9.99%

O=C(Nc1ccc(-c2ccnc(Nc3ccc(N4CCOCC4)cc3)n2)cc1)[C@@H]1CCCN1
inhibition ([1]; Compound Concentration 1.0 uM): 58.2%
inhibition ([2]; Compound Concentration 1.0 uM): 14.9%
inhibition ([4]; Compound Concentration 1.0 uM): -0.777%
inhibition ([5]; Compound Concentration 1.0 uM): 24.9%
inhibition ([6]; Compound Concentration 1.0 uM): 1.3%
inhibition ([7]; Compound Concentration 1.0 uM): 5.95%
inhibition ([8]; Compound Concentration 1.0 uM): 3.18%

C[C@@H]1CN(c2ncc(Cl)c(Nc3ccc4c(c3)n(CCC(C)(C)O)c(=O)n4C)n2)C[C@H](C)C1(F)F
inhibition ([1]; Compound Concentration 10.0 uM): 57.5%
inhibition ([2]; Compound Concentration 10.0 uM): 2.19%
inhibition ([3]; Compound Concentration 10.0 uM): -9.67%
inhibition ([4]; Compound Concentration 10.0 uM): 66.3%
inhibition ([5]; Compound Concentration 10.0 uM): 18%
inhibition ([6]; Compound Concentration 10.0 uM): -2.08%
inhibition ([8]; Compound Concentration 10.0 uM): 9.4%

O=C(Nc1cccnn1)N1CC(C/C=C/c2cncc(Oc3ccc(C(F)(F)F)cn3)n2)C1
inhibition ([1]; Compound Concentration 10.0 uM): 97.9%
inhibition ([2]; Compound Concentration 10.0 uM): -2.62%
inhibition ([4]; Compound Concentration 10.0 uM): 63.3%
inhibition ([5]; Compound Concentration 10.0 uM): 18.1%
inhibition ([6]; Compound Concentration 10.0 uM): -7.39%
inhibition ([8]; Compound Concentration 10.0 uM): -1.71%

CC1(C)Cn2nc(-c3ccc(F)cn3)c(-c3ccnc4[nH]ncc34)c2CO1
inhibition [1, 9]: 99.8%
inhibition [2, 9]: -5.13%
inhibition [3, 9]: -8.4%
inhibition [4, 9]: 55.2%
inhibition [5, 9]: 12.7%
inhibition [6, 9]: -6.31%
inhibition [8, 9]: 0.65%

CCNC(=O)c1cc2c(N3CCOC[C@@H]3C)ccnc2n1C
inhibition ([1]; Compound Concentration 10.0 uM): 31.4%
inhibition ([2]; Compound Concentration 10.0 uM): -5.18%
inhibition ([3]; Compound Concentration 10.0 uM): -9.42%
inhibition ([4]; Compound Concentration 10.0 uM): 67%
inhibition ([5]; Compound Concentration 10.0 uM): 6.82%
inhibition ([6]; Compound Concentration 10.0 uM): 11.4%
inhibition ([8]; Compound Concentration 10.0 uM): -0.625%

CCO[C@@H](Cc1ccc(OCCc2ccc(OS(C)(=O)=O)cc2)cc1)C(=O)O
inhibition ([1]; Compound Concentration 10.0 uM): 43.6%
inhibition ([2]; Compound Concentration 10.0 uM): -4.86%
inhibition ([3]; Compound Concentration 10.0 uM): -6.87%
inhibition ([4]; Compound Concentration 10.0 uM): 65.1%
inhibition ([5]; Compound Concentration 10.0 uM): 20.9%
inhibition ([6]; Compound Concentration 10.0 uM): 7.36%
inhibition ([8]; Compound Concentration 10.0 uM): 1.73%

O=C(NCc1ncc(C(F)(F)F)cc1Cl)c1ccc2c(c1)C1(CCS(=O)(=O)CC1)[C@H](C1CC1)N2S(=O)(=O)c1ccc(F)cc1
inhibition ([1]; Compound Concentration 1.0 uM): 38.8%
inhibition ([2]; Compound Concentration 1.0 uM): 2.13%
inhibition ([3]; Compound Concentration 1.0 uM): -0.744%
inhibition ([4]; Compound Concentration 1.0 uM): 59.6%
inhibition ([5]; Compound Concentration 1.0 uM): -4%
inhibition ([6]; Compound Concentration 1.0 uM): -6.07%
inhibition ([8]; Compound Concentration 1.0 uM): -0.35%

CC(=O)C1=C(C)N(c2cccc(C(F)(F)F)c2)C(=O)N[C@H]1c1ccc(C#N)nc1
inhibition ([1]; Compound Concentration 10.0 uM): 45.5%
inhibition ([2]; Compound Concentration 10.0 uM): -5.95%
inhibition ([3]; Compound Concentration 10.0 uM): 6.4%
inhibition ([4]; Compound Concentration 10.0 uM): 60.5%
inhibition ([5]; Compound Concentration 10.0 uM): 10.2%
inhibition ([6]; Compound Concentration 10.0 uM): -1.74%
inhibition ([8]; Compound Concentration 10.0 uM): -0.968%

Cc1ccc(Cn2nc(C(=O)N[C@@H]3C(C)(C)[C@@H]4CC[C@@]3(C)C4)cc2-c2ccc(Cl)c(C)c2)cc1
inhibition ([1]; Compound Concentration 10.0 uM): 21.7%
inhibition ([2]; Compound Concentration 10.0 uM): -0.363%
inhibition ([3]; Compound Concentration 10.0 uM): 7%
inhibition ([4]; Compound Concentration 10.0 uM): -2.75%
inhibition ([5]; Compound Concentration 10.0 uM): -0.0818%
inhibition ([6]; Compound Concentration 10.0 uM): -0.971%
inhibition ([7]; Compound Concentration 10.0 uM): 10.9%

COc1cc2c(cc1CC=C(C)C)C(=O)C[C@@H](c1ccc(O)cc1)O2
inhibition ([1]; Compound Concentration 10.0 uM): 49.3%
inhibition ([2]; Compound Concentration 10.0 uM): -5.24%
inhibition ([3]; Compound Concentration 10.0 uM): -5.59%
inhibition ([4]; Compound Concentration 10.0 uM): 61.9%
inhibition ([5]; Compound Concentration 10.0 uM): 19.4%
inhibition ([6]; Compound Concentration 10.0 uM): 19.1%
inhibition ([8]; Compound Concentration 10.0 uM): 0.826%
